From PubChem BioAssay AID2060898 (Molecular Pharmacology Branch, DTP, NCI, 2025)

Test system: 616215-338-R-J1-PDC complex spheroid viability
Test: Anticancer human tumor 616215-338-R-J1-PDC patient-derived colon adenocarcinoma cell line growth inhibition [RAS]
Details: for viability, T/C: stronger effect = lower value; active = viability on the fitted dose curve at most 10% of control; inactive = the rest
Outline: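 Multi-cell-type spheroids: tumor cells plus HUVEC endothelial cells and mesenchymal stem cells. RAS-pathway inhibitors were combined with targeted agents, each dosed in half-log steps down from clinical Cmax, or from 10 microM when Cmax was unknown.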
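Also: spheroids exposed to agents for seven days before viability readout.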
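For viability, T/C in this document: 100% = DMSO vehicle control viability.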

CC(Nc1ccc2c(c1)OCCn1cc(N3C(=O)OCC3C(F)F)nc1-2)C(N)=O (stereo unspecified)
> 10000 nM: IC50 (curve of compound)
inactive: viability, T/C (compound 0.0316 µM) 111% [middle of 4 runs] | viability, T/C (compound 0.1 µM) 108% [middle of 4 runs] | viability, T/C (compound 0.316 µM) 110% [middle of 4 runs] | viability, T/C (compound 1 µM) 107% [middle of 4 runs] | viability, T/C (compound 3.16 µM) 102% [middle of 4 runs] | viability, T/C (compound 10 µM) 83.5% [middle of 4 runs]

CCc1c2c(nc3ccc(O)cc13)-c1cc3c(c(=O)n1C2)COC(=O)[C@]3(O)CC + C#Cc1c(F)ccc2cc(O)cc(-c3ncc4c(N5CC6CCC(C5)N6)nc(OCC56CCCN5CC(F)C6)nc4c3F)c12
10.2 nM: IC50 (curve of first compound, second compound 0.0316 µM)
4.71 nM: IC50 (curve of first compound, second compound 3.16 µM)
10.7 nM: IC50 (curve of first compound, second compound 0.1 µM)
16.8 nM: IC50 (curve of first compound, second compound 0.316 µM)
7.72 nM: IC50 (curve of first compound, second compound 1 µM)
< 0.949 nM: IC50 (curve of first compound, second compound 10 µM)
inactive: viability, T/C (second compound 0.0316 µM, first compound 0.000949 µM) 108% | viability, T/C (second compound 0.0316 µM, first compound 0.003 µM) 108% | viability, T/C (second compound 0.0316 µM, first compound 0.00949 µM) 50.2% | viability, T/C (second compound 0.0316 µM, first compound 0.03 µM) 35% | viability, T/C (second compound 0.0316 µM, first compound 0.0949 µM) 21.1% | viability, T/C (second compound 0.0316 µM, first compound 0.3 µM) 16.5% | viability, T/C (second compound 0.1 µM, first compound 0.000949 µM) 116% | viability, T/C (second compound 0.1 µM, first compound 0.003 µM) 103% | viability, T/C (second compound 0.1 µM, first compound 0.00949 µM) 50.8% | viability, T/C (second compound 0.1 µM, first compound 0.03 µM) 27.9% | viability, T/C (second compound 0.1 µM, first compound 0.0949 µM) 21.6% | viability, T/C (second compound 0.1 µM, first compound 0.3 µM) 13.6% | viability, T/C (second compound 0.316 µM, first compound 0.000949 µM) 112% | viability, T/C (second compound 0.316 µM, first compound 0.003 µM) 100% | viability, T/C (second compound 0.316 µM, first compound 0.00949 µM) 63% | viability, T/C (second compound 0.316 µM, first compound 0.03 µM) 36% | viability, T/C (second compound 0.316 µM, first compound 0.0949 µM) 20.6% | viability, T/C (second compound 0.316 µM, first compound 0.3 µM) 14% | viability, T/C (second compound 1 µM, first compound 0.000949 µM) 120% | viability, T/C (second compound 1 µM, first compound 0.003 µM) 89.6% | viability, T/C (second compound 1 µM, first compound 0.00949 µM) 38.7% | viability, T/C (second compound 1 µM, first compound 0.03 µM) 30.5% | viability, T/C (second compound 1 µM, first compound 0.0949 µM) 20.2% | viability, T/C (second compound 1 µM, first compound 0.3 µM) 15.8% | viability, T/C (second compound 3.16 µM, first compound 0.000949 µM) 89.3% | viability, T/C (second compound 3.16 µM, first compound 0.003 µM) 65.8% | viability, T/C (second compound 3.16 µM, first compound 0.00949 µM) 25.1% | viability, T/C (second compound 3.16 µM, first compound 0.03 µM) 20% | viability, T/C (second compound 3.16 µM, first compound 0.0949 µM) 15.1% | viability, T/C (second compound 3.16 µM, first compound 0.3 µM) 13.2% | viability, T/C (second compound 10 µM, first compound 0.000949 µM) 47.1% | viability, T/C (second compound 10 µM, first compound 0.003 µM) 45% | viability, T/C (second compound 10 µM, first compound 0.00949 µM) 17.5% | viability, T/C (second compound 10 µM, first compound 0.03 µM) 17.6% | viability, T/C (second compound 10 µM, first compound 0.0949 µM) 16.6% | viability, T/C (second compound 10 µM, first compound 0.3 µM) 10.7%

O=C(c1ccc(F)c(F)c1Nc1ccc(I)cc1F)N1CC(O)([C@@H]2CCCCN2)C1 + CCn1c(-c2cccnc2C(C)OC)c2c3cc(ccc31)N1CCOC(CC(NC(=O)C(C(C)C)N(C)C(=O)C3(F)CCN(C(=O)C#CC(C)(C)N(C)C)CC3)C(=O)N3CCCC(N3)C(=O)OCC(C)(C)C2)C1
64.9 nM: IC50 (curve of first compound, second compound 0.000949 µM)
57.8 nM: IC50 (curve of first compound, second compound 0.00949 µM)
active: viability, T/C (second compound 0.000949 µM, first compound 1 µM) 4.49% | viability, T/C (second compound 0.003 µM, first compound 1 µM) 2.97% | viability, T/C (second compound 0.00949 µM, first compound 1 µM) 3.61% | viability, T/C (second compound 0.03 µM, first compound 1 µM) 2.6% | viability, T/C (second compound 0.0949 µM, first compound 1 µM) 2.27% | viability, T/C (second compound 0.3 µM, first compound 0.316 µM) 5.09% | viability, T/C (second compound 0.3 µM, first compound 1 µM) 1.18%
47.5 nM: IC50 (curve of first compound, second compound 0.0949 µM)
53.1 nM: IC50 (curve of first compound, second compound 0.03 µM)
53.7 nM: IC50 (curve of first compound, second compound 0.003 µM)
inactive: viability, T/C (second compound 0.000949 µM, first compound 0.00316 µM) 108% | viability, T/C (second compound 0.000949 µM, first compound 0.01 µM) 99.2% | viability, T/C (second compound 0.000949 µM, first compound 0.0316 µM) 70.6% | viability, T/C (second compound 0.000949 µM, first compound 0.1 µM) 34.7% | viability, T/C (second compound 0.000949 µM, first compound 0.316 µM) 21.4% | viability, T/C (second compound 0.003 µM, first compound 0.00316 µM) 112% | viability, T/C (second compound 0.003 µM, first compound 0.01 µM) 109% | viability, T/C (second compound 0.003 µM, first compound 0.0316 µM) 63.3% | viability, T/C (second compound 0.003 µM, first compound 0.1 µM) 30.5% | viability, T/C (second compound 0.003 µM, first compound 0.316 µM) 18% | viability, T/C (second compound 0.00949 µM, first compound 0.00316 µM) 105% | viability, T/C (second compound 0.00949 µM, first compound 0.01 µM) 109% | viability, T/C (second compound 0.00949 µM, first compound 0.0316 µM) 61.5% | viability, T/C (second compound 0.00949 µM, first compound 0.1 µM) 34.8% | viability, T/C (second compound 0.00949 µM, first compound 0.316 µM) 22.2% | viability, T/C (second compound 0.03 µM, first compound 0.00316 µM) 125% | viability, T/C (second compound 0.03 µM, first compound 0.01 µM) 93.9% | viability, T/C (second compound 0.03 µM, first compound 0.0316 µM) 61.8% | viability, T/C (second compound 0.03 µM, first compound 0.1 µM) 34.7% | viability, T/C (second compound 0.03 µM, first compound 0.316 µM) 16.9% | viability, T/C (second compound 0.0949 µM, first compound 0.00316 µM) 101% | viability, T/C (second compound 0.0949 µM, first compound 0.01 µM) 87.9% | viability, T/C (second compound 0.0949 µM, first compound 0.0316 µM) 59.2% | viability, T/C (second compound 0.0949 µM, first compound 0.1 µM) 31.2% | viability, T/C (second compound 0.0949 µM, first compound 0.316 µM) 13.3% | viability, T/C (second compound 0.3 µM, first compound 0.00316 µM) 85.8% | viability, T/C (second compound 0.3 µM, first compound 0.01 µM) 58.6% | viability, T/C (second compound 0.3 µM, first compound 0.0316 µM) 32.8% | viability, T/C (second compound 0.3 µM, first compound 0.1 µM) 20.4%
14.8 nM: IC50 (curve of first compound, second compound 0.3 µM)
